Measured values from ChEMBL document CHEMBL1150412, “1,5-Diphenylpyrrole derivatives as antimycobacterial agents. Probing the influence on antimycobacterial activity of lipophilic substituents at the phenyl rings” (J Med Chem, 2008).
In brackets after ≈: the same amount, converted by molar mass.

Experiments:
[1] = test system: Mycobacterium tuberculosis; assay: Antimycobacterial activity against isoniazid-resistant Mycobacterium tuberculosis; assay type: functional
[2] = test system: Mycobacterium tuberculosis; assay: Antimycobacterial activity against rifampicin-resistant Mycobacterium tuberculosis; assay type: functional

Structure (SMILES)	MIC [1] [µg/mL]	MIC [2] [µg/mL]
Cc1c(CN2CCN(C)CC2)cc(-c2ccc(Cl)cc2)n1-c1ccc(Cl)cc1	2 (≈ 4.83 µM)	1 (≈ 2.41 µM)
Cc1ccc(-c2cc(CN3CCSCC3)c(C)n2-c2ccc(F)cc2)cc1	32 (≈ 84.1 µM)	0.5 (≈ 1.31 µM)
Cc1c(CN2CCSCC2)cc(-c2ccc(Cl)cc2)n1-c1ccc(C(C)C)cc1	> 16	0.25 (≈ 0.588 µM)
CCc1ccc(-n2c(-c3ccc(Cl)cc3)cc(CN3CCSCC3)c2C)cc1	16 (≈ 38.9 µM)	0.5 (≈ 1.22 µM)
Cc1c(CN2CCSCC2)cc(-c2ccc(C(C)C)cc2)n1-c1ccc(F)cc1	> 16	0.25 (≈ 0.612 µM)
Cc1ccc(-c2cc(CN3CCSCC3)c(C)n2-c2ccc(Cl)cc2)cc1	16 (≈ 40.3 µM)	0.5 (≈ 1.26 µM)
CCc1ccc(-c2cc(CN3CCSCC3)c(C)n2-c2ccc(Cl)cc2)cc1	16 (≈ 38.9 µM)	0.25 (≈ 0.608 µM)
Cc1ccc(-n2c(-c3ccc(Cl)cc3)cc(CN3CCSCC3)c2C)cc1	> 16	0.5 (≈ 1.26 µM)
CCCc1ccc(-n2c(-c3ccc(Cl)cc3)cc(CN3CCSCC3)c2C)cc1	> 16	0.25 (≈ 0.588 µM)
CCCc1ccc(-c2cc(CN3CCSCC3)c(C)n2-c2ccc(Cl)cc2)cc1	> 16	0.125 (≈ 0.294 µM)
Cc1c(CN2CCSCC2)cc(-c2ccc(C(C)C)cc2)n1-c1ccc(Cl)cc1	8 (≈ 18.8 µM)	0.125 (≈ 0.294 µM)
[H]/N=C(/N)N[C@H]1[C@H](O)[C@@H](O)[C@H](O[C@@H]2O[C@@H](C)[C@](O)(C=O)[C@H]2O[C@@H]2O[C@@H](CO)[C@H](O)[C@@H](O)[C@@H]2NC)[C@@H](N/C(N)=N\[H])[C@@H]1O (stereo in doubt) [STREPTOMYCIN]	16 (≈ 27.5 µM)	4 (≈ 6.88 µM)
NNC(=O)c1ccncc1 [ISONIAZID]	> 16	0.25 (≈ 1.82 µM)
CO[C@H]1/C=C/O[C@@]2(C)Oc3c(C)c(O)c4c(O)c(c(/C=N/N5CCN(C)CC5)c(O)c4c3C2=O)NC(=O)/C(C)=C\C=C\[C@H](C)[C@H](O)[C@@H](C)[C@@H](O)[C@@H](C)[C@H](OC(C)=O)[C@@H]1C [RIFAMPIN]	0.25 (≈ 0.304 µM)	> 64
